Results taken from patent US20220264878A1, “HERBICIDAL COMPOSITION CONTAINING R-TYPE PYRIDYLOXY CARBOXYLIC ACID DERIVATIVE AND USE THEREOF” (Qingdao Kingagroot Chemical Compound Co., Ltd., priority 2019, published 2022).
Where two headings read alike, the source gives them in different places.

Assays:
Format in all cases: in vivo
[1] = system: Alopecurus japonicus; assay: Post-emergence foliage spray, pot culture, fresh weight inhibition (Tables 151-206; 20 days)
Protocol: (§1) Table 151-206: Digitaria sanguinalis, Amaranthus retroflexus, Conyza Canadensis, Capsella bursa-pastoris, Eleusine indica were collected in Huangdao of Shandong Province, Sinapis arvensis were collected in Sixian of Anhui Province, Alopecurus japonicus were collected in Tianchang of Anhui Province, Veronica didyma were collected in Siyang of Jiangsu Province.
(§2) The above weeds were cultivated by a pot culture method. […] Full and uniform weed seeds were selected, soaked in warm water at 25° C. for 6 hours, and germinated in a 28° C. biochemical incubator (darkness). The weed seeds that had just germinatedwere evenly placed on the surface of the soil and then covered with 0.5-1 cm soil according to the sizes of seeds.
(§3) The culture was carried out in a controllable sunlight greenhouse at 20 to 30° C., in natural light, and relative humidity of 57% to 72%.
(§4) The technical materials were all dissolved in acetone, and diluted with an aqueous solution containing 0.1% emulsifier Tween-80. The dilution is performed as required.
(§5) A ratio of the active ingredient A to the active ingredient B and amounts thereof in each group depends on the characteristics and toxicity of the two agents, as well as the main application purpose of a corresponding formulation. Based on the pre-tests in this study, the dosage of the active ingredient A and B applied alone and in combination were shown in the tables. Water containing the solvent and emulsifier same with the above groups but free of the agents was used as a blank control.
(§6) Table 1-48, 51-98, 101-148, 151-206: […] per treatment, that is, a total of 60 weeds were treated in one treatment.
(§7) Table 151-206: The agents were used for only once in the experiment. In the stage of weeds with 3˜4 leaves, the weeds were thinned out to maintain 15 weeds per pot and 45 weeds for each treatment, then continued to be cultured to 4˜5 leaves stage of grassy weeds, 5˜6 leaves stage of broadleaf weeds, and treated.
(§8) The well-cultured weeds were evenly placed on a platform with an area of 0.5 m^2, and a solution of agents was sprayed on the stems and leaves thereof by the 3WP-2000-type walking spray tower at a dosage of 450 kg/ha and at a spray pressure of 0.3 MPa. After all the solution was sprayed, the valve was closed. After 30 seconds, the door of the spray tower was opened, and the nutritional bowl was taken out. Then the valve was opened, and the spray tube was cleaned by spraying 50 ml of water.
(§9) A pot-culture method was employed. For the cultivation of weeds, please refer to the Section 1.1), and “Pesticide guidelines for laboratory bioactivity tests—herbicides”. As to a method for applying agents, please refer to the section 2.3.2), that is, a foliage treatment was employed. After the treatment, the weeds were routinely cultured in a greenhouse.
(§10) A method for investigating absolute number was employed, wherein whole seedlings of survival weeds were cut off with a blade along the soil surface, and the fresh weight of the weeds was weighed with an analytical balance. For dead weeds, the fresh weight thereof was zero.
(§11) Table 151-206: The investigation was performed after 20 days of the treatment for only once.
(§12) Theoretical fresh weight inhibition rate of a combination of two active ingredients in each group was calculated by the Gowing method (E0=X+Y−X*Y/100), and then compared with an actually measured inhibition rate (E), thereby effect of the combination (hereafter referred to as combined effect) on weeds was evaluated: the value of E-E0, which was greater than 10%, corresponded to a synergistic effect, the value of E-E0, which was less than −10%, corresponded to an antagonistic effect, and the value of E-E0, which was from −10% to 10%, corresponded to an additional effect.

[2] = system: Conyza Canadensis; assay: as above
Protocol: as §1, §2, §3, §4, §5, §6, §7, §8, §9, §10, §11, §12

[3] = system: Digitaria sanguinalis; assay: as above; settings: Digitaria sanguinalis, 480 h, 20 days, read-out: Control effect (%) of A applied alone in corresponding dose; for pest or weed control at 75 g/ha: A 75 g a.i./ha; for pest or weed control at 150 g/ha: A 150 g a.i./ha
Protocol: as §1, §2, §3, §4, §5, §6, §7, §8, §9, §10, §11, §12

[4] = system: Eleusine indica; assay: as above
Protocol: as §1, §2, §3, §4, §5, §6, §7, §8, §9, §10, §11, §12

[5] = system: Sinapis arvensis; assay: as above
Protocol: as §1, §2, §3, §4, §5, §6, §7, §8, §9, §10, §11, §12

[6] = system: Veronica didyma; assay: as above
Protocol: as §1, §2, §3, §4, §5, §6, §7, §8, §9, §10, §11, §12

[7] = system: Amaranthus retroflexus; assay: as above
Protocol: as §2, §4, §5
(§13) In the stage of weeds with 3˜4 leaves, the weeds were thinned out to maintain 15 weeds per pot and 45 weeds for each treatment, then continued to be cultured to 4˜5 leaves stage of grassy weeds, 5˜6 leaves stage of broadleaf weeds, and treated.
as §8, §9, §10
(§14) Wherein, in the formula, X represented the fresh weight inhibition rate of the active ingredient A in a dosage of P, and Y represented the fresh weight inhibition rate of the active ingredient B in a dosage of Q.

[8] = system: Capsella bursa-pastoris; assay: as above; settings: Capsella bursa-pastoris, 480 h, read-out: Control effect (%) of A applied alone in corresponding dose
Protocol: as §2, §4, §5, §13, §8, §9, §10, §14

[9] = system: Chenopodium album; assay: Post-emergence foliage spray, pot culture, fresh weight inhibition (Tables 1-48, 51-98, 101-148; 24 days); settings: Table 95
How it was run: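 Pot-grown weeds were thinned to 15 per pot (45 per treatment) and sprayed on foliage at the 5–6-leaf stage for grasses or the 6–7-leaf stage for broadleaves. Agents were dissolved in acetone with 0.1% Tween-80 and applied at 450 kg/ha spray volume and 0.3 MPa. Plants were then kept in a greenhouse. Above-ground fresh weight of survivors, with dead plants counted as zero, gave inhibition versus a solvent/emulsifier blank.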

[10] = system: Acalypha australis; assay: as above
How it was run: (§15)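 Greenhouse pot plants (20–30 °C, natural light, 57–72% RH) were sprayed once on foliage at 450 kg/ha and 0.3 MPa, at the 5–6-leaf (grass) or 6–7-leaf (broadleaf) stage. Compounds were in acetone diluted with 0.1% Tween-80 water. Surviving shoots were weighed at 24 days; dead plants counted as zero.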

[11] = system: Amaranthus retroflexus; assay: as above
How it was run: as §15

[12] = A alone 75 g a.i./ha, 20 days after treatment
[13] = A alone 150 g a.i./ha, 20 days after treatment

COC(=O)[C@@H](C)Oc1nc(F)c(Cl)c(N)c1Cl [Compound A67]
Control effect (%) of A applied alone in corresponding dose ([1]; A 75 g a.i./ha, 20 days): 28.7% | Control effect (%) of A applied alone in corresponding dose ([1]; A 150 g a.i./ha, 20 days): 52.4% | Control effect (%) of A applied alone in corresponding dose ([2]; A 75 g a.i./ha, 20 days): 45.9% | Control effect (%) of A applied alone in corresponding dose ([2]; A 150 g a.i./ha, 20 days): 65.6% | pest or weed control at 75 g/ha [3]: 23.4% | pest or weed control at 150 g/ha [3]: 62.2% | Control effect (%) of A applied alone in corresponding dose ([4]; A 75 g a.i./ha, 20 days): 42.5% | Control effect (%) of A applied alone in corresponding dose ([4]; A 150 g a.i./ha, 20 days): 75.3% | Control effect (%) of A applied alone in corresponding dose ([5]; A 75 g a.i./ha, 20 days): 45.7% | Control effect (%) of A applied alone in corresponding dose ([5]; A 150 g a.i./ha, 20 days): 72.8% | Control effect (%) of A applied alone in corresponding dose ([6]; A 75 g a.i./ha, 20 days): 23.2% | Control effect (%) of A applied alone in corresponding dose ([6]; A 150 g a.i./ha, 20 days): 43.1% | Control effect (%) of A applied alone in corresponding dose ([7]; A 75 g a.i./ha, 20 days): 31.7% | Control effect (%) of A applied alone in corresponding dose ([7]; A 150 g a.i./ha, 20 days): 63.9% | pest or weed control at 75 g/ha ([8]; A 75 g a.i./ha, 20 days): 51.4% | pest or weed control at 150 g/ha ([8]; A 150 g a.i./ha, 20 days): 75.6%

C[C@@H](Oc1nc(F)c(Cl)c(N)c1Cl)C(=O)OCc1ccco1 [Compound A163]
Control effect (%) of A applied alone in corresponding dose [1, 12]: 24.1% | Control effect (%) of A applied alone in corresponding dose [1, 13]: 44.0% | Control effect (%) of A applied alone in corresponding dose [2, 12]: 39.0% | Control effect (%) of A applied alone in corresponding dose [2, 13]: 55.8% | pest or weed control at 75 g/ha [3]: 16.6% | pest or weed control at 150 g/ha [3]: 45.4% | Control effect (%) of A applied alone in corresponding dose [4, 12]: 31.7% | Control effect (%) of A applied alone in corresponding dose [4, 13]: 56.0% | Control effect (%) of A applied alone in corresponding dose [5, 12]: 29.6% | Control effect (%) of A applied alone in corresponding dose [5, 13]: 47.2% | Control effect (%) of A applied alone in corresponding dose [6, 12]: 18.6% | Control effect (%) of A applied alone in corresponding dose [6, 13]: 34.5% | Control effect (%) of A applied alone in corresponding dose [7, 12]: 26.6% | Control effect (%) of A applied alone in corresponding dose [7, 13]: 53.7% | pest or weed control at 75 g/ha [8, 12]: 41.1% | pest or weed control at 150 g/ha [8, 13]: 60.5%

O=C(O)c1cc(Oc2ccc(C(F)(F)F)cc2Cl)ccc1[N+](=O)[O-] [acifluorfen-sodium]
Control effect (%) of B applied alone in corresponding dose ([9]; 37.5 g a.i./ha): 2.0% | Control effect (%) of B applied alone in corresponding dose ([9]; 75 g a.i./ha): 13.7% | Control effect (%) of B applied alone in corresponding dose ([9]; 150 g a.i./ha): 45.0% | Control effect (%) of B applied alone in corresponding dose ([9]; 300 g a.i./ha): 81.0% | Control effect (%) of B applied alone in corresponding dose ([10]; B 37.5 g a.i./ha): 5.8% | Control effect (%) of B applied alone in corresponding dose ([10]; B 75 g a.i./ha): 11.6% | Control effect (%) of B applied alone in corresponding dose ([10]; B 150 g a.i./ha): 46.6% | Control effect (%) of B applied alone in corresponding dose ([10]; B 300 g a.i./ha): 85.3% | Control effect (%) of B applied alone in corresponding dose ([11]; acifluorfen-sodium 37.5 g a.i./ha): 4.4% | Control effect (%) of B applied alone in corresponding dose ([11]; acifluorfen-sodium 75 g a.i./ha): 10.3% | Control effect (%) of B applied alone in corresponding dose ([11]; acifluorfen-sodium 150 g a.i./ha): 45.1% | Control effect (%) of B applied alone in corresponding dose ([11]; acifluorfen-sodium 300 g a.i./ha): 85.0%
